Values quoted from earlier work as cited in patent publication US20040139488A1, “Compositions and methods for enhancing disease resistance in fish” (priority 2002, published 2004).

What was measured:
[1] = system: E. ictaluri; conditions: synthesized, HPLC-purified peptide, in vitro
[2] = system: Aeromonas salmonicida; conditions: synthesized, HPLC-purified peptide, in vitro

Q: What does the source list for “cecropin B: mature cecropin B from Hyalophora cecropia (SEQ ID NO:19), synthesized peptide purified by high-pressure liquid chromatography (KWKVFKKIEKMGRNIRNGIVKAGPAIAVLGEAKALG; listed as Hyalophora cecropia)”?
A: bactericidal activity against E. ictaluri [1]: possess the predicted bactericidal activity; bactericidal activity against Aeromonas salmonicida [2]: possess the predicted bactericidal activity
